Results published in PubChem BioAssay AID2060900 (Molecular Pharmacology Branch, DTP, NCI, 2025).

Each compound was assayed on 521955-158-R2-J5-PDC complex spheroids, viability (assay: Anticancer human tumor 521955-158-R2-J5-PDC patient-derived pancreatic carcinoma cell line growth inhibition [RAS]). Conditions: second compound 0.00316 µM; first compound 3.16 µM; hits give low values.
Procedure, shortened: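 Multi-cell-type spheroids: tumor cells plus HUVEC endothelial cells and mesenchymal stem cells. RAS-pathway inhibitors were combined with targeted agents, each dosed in half-log steps down from clinical Cmax, or from 10 microM when Cmax was unknown.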
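Further: spheroids also contain HUVEC endothelial cells and mesenchymal stem cells as stroma; compound exposure lasted seven days before the viability read.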

In order of rising viability, T/C:
1. CCC(CC)c1cc(NC2CCC(N)C2)n2nccc2n1 (stereo unspecified) + C=CC(=O)N1CCN(c2nc(OCC3CCCN3C)nc3c(F)c(-c4nc(N)cc(C)c4C(F)(F)F)c(Cl)cc23)C(C)C1  7.09%
2. NC1c2ccccc2OC12CCN(c1cnc3c(N4CCCc5ncccc54)n[nH]c3n1)CC2 (stereo unspecified) + C=CC(=O)N1CCN(c2nc(OCC3CCCN3C)nc3c(F)c(-c4nc(N)cc(C)c4C(F)(F)F)c(Cl)cc23)C(C)C1  54.8%
3. Cc1nc(N2CCC3(CC2)COC(C)C3N)c(CO)nc1Sc1ccnc(N)c1Cl (stereo unspecified) + C=CC(=O)N1CCN(c2nc(OCC3CCCN3C)nc3c(F)c(-c4nc(N)cc(C)c4C(F)(F)F)c(Cl)cc23)C(C)C1  60.1%
4. CC1(O)CCCC1n1c(=O)c(C(F)F)cc2cnc(NC3CCN(S(C)(=O)=O)CC3)nc21 (stereo unspecified) + C=CC(=O)N1CCN(c2nc(OCC3CCCN3C)nc3c(F)c(-c4nc(N)cc(C)c4C(F)(F)F)c(Cl)cc23)C(C)C1  121%

Same assay, conditions: second compound 0.00316 µM; first compound 10 µM; hits give low values

In order of falling viability, T/C:
1. NC1c2ccccc2OC12CCN(c1cnc3c(N4CCCc5ncccc54)n[nH]c3n1)CC2 (stereo unspecified) + C=CC(=O)N1CCN(c2nc(OCC3CCCN3C)nc3c(F)c(-c4nc(N)cc(C)c4C(F)(F)F)c(Cl)cc23)C(C)C1  59.3%
2. Cc1nc(N2CCC3(CC2)COC(C)C3N)c(CO)nc1Sc1ccnc(N)c1Cl (stereo unspecified) + C=CC(=O)N1CCN(c2nc(OCC3CCCN3C)nc3c(F)c(-c4nc(N)cc(C)c4C(F)(F)F)c(Cl)cc23)C(C)C1  56.8%
3. CC1(O)CCCC1n1c(=O)c(C(F)F)cc2cnc(NC3CCN(S(C)(=O)=O)CC3)nc21 (stereo unspecified) + C=CC(=O)N1CCN(c2nc(OCC3CCCN3C)nc3c(F)c(-c4nc(N)cc(C)c4C(F)(F)F)c(Cl)cc23)C(C)C1  14.4%
4. CCC(CC)c1cc(NC2CCC(N)C2)n2nccc2n1 (stereo unspecified) + C=CC(=O)N1CCN(c2nc(OCC3CCCN3C)nc3c(F)c(-c4nc(N)cc(C)c4C(F)(F)F)c(Cl)cc23)C(C)C1  10.1%

Same assay, conditions: second compound 0.01 µM; first compound 0.00316 µM; hits give low values

For CCN1CCN(Cc2ccc(Nc3ncc(F)c(-c4cc(F)c5nc(C)n(C(C)C)c5c4)n3)nc2)CC1 + C=CC(=O)N1CCN(c2nc(OCC3CCCN3C)nc3c(F)c(-c4nc(N)cc(C)c4C(F)(F)F)c(Cl)cc23)C(C)C1, the viability, T/C was 87.2%.

Same assay, conditions: second compound 0.01 µM; first compound 0.01 µM; hits give low values

Compound CCN1CCN(Cc2ccc(Nc3ncc(F)c(-c4cc(F)c5nc(C)n(C(C)C)c5c4)n3)nc2)CC1 + C=CC(=O)N1CCN(c2nc(OCC3CCCN3C)nc3c(F)c(-c4nc(N)cc(C)c4C(F)(F)F)c(Cl)cc23)C(C)C1 has a viability, T/C of 126%.

Same assay, conditions: second compound 0.01 µM; first compound 0.0316 µM; hits give low values

In order of falling viability, T/C:
1. CCC(CC)c1cc(NC2CCC(N)C2)n2nccc2n1 (stereo unspecified) + C=CC(=O)N1CCN(c2nc(OCC3CCCN3C)nc3c(F)c(-c4nc(N)cc(C)c4C(F)(F)F)c(Cl)cc23)C(C)C1  104%
2. CC1(O)CCCC1n1c(=O)c(C(F)F)cc2cnc(NC3CCN(S(C)(=O)=O)CC3)nc21 (stereo unspecified) + C=CC(=O)N1CCN(c2nc(OCC3CCCN3C)nc3c(F)c(-c4nc(N)cc(C)c4C(F)(F)F)c(Cl)cc23)C(C)C1  85.9%
3. Cc1nc(N2CCC3(CC2)COC(C)C3N)c(CO)nc1Sc1ccnc(N)c1Cl (stereo unspecified) + C=CC(=O)N1CCN(c2nc(OCC3CCCN3C)nc3c(F)c(-c4nc(N)cc(C)c4C(F)(F)F)c(Cl)cc23)C(C)C1  81.2%
4. CCN1CCN(Cc2ccc(Nc3ncc(F)c(-c4cc(F)c5nc(C)n(C(C)C)c5c4)n3)nc2)CC1 + C=CC(=O)N1CCN(c2nc(OCC3CCCN3C)nc3c(F)c(-c4nc(N)cc(C)c4C(F)(F)F)c(Cl)cc23)C(C)C1  76.5%
5. NC1c2ccccc2OC12CCN(c1cnc3c(N4CCCc5ncccc54)n[nH]c3n1)CC2 (stereo unspecified) + C=CC(=O)N1CCN(c2nc(OCC3CCCN3C)nc3c(F)c(-c4nc(N)cc(C)c4C(F)(F)F)c(Cl)cc23)C(C)C1  68%

Same assay, conditions: second compound 0.01 µM; first compound 0.1 µM; hits give low values

In order of falling viability, T/C:
1. CCC(CC)c1cc(NC2CCC(N)C2)n2nccc2n1 (stereo unspecified) + C=CC(=O)N1CCN(c2nc(OCC3CCCN3C)nc3c(F)c(-c4nc(N)cc(C)c4C(F)(F)F)c(Cl)cc23)C(C)C1  127%
2. CCN1CCN(Cc2ccc(Nc3ncc(F)c(-c4cc(F)c5nc(C)n(C(C)C)c5c4)n3)nc2)CC1 + C=CC(=O)N1CCN(c2nc(OCC3CCCN3C)nc3c(F)c(-c4nc(N)cc(C)c4C(F)(F)F)c(Cl)cc23)C(C)C1  120%
3. CC1(O)CCCC1n1c(=O)c(C(F)F)cc2cnc(NC3CCN(S(C)(=O)=O)CC3)nc21 (stereo unspecified) + C=CC(=O)N1CCN(c2nc(OCC3CCCN3C)nc3c(F)c(-c4nc(N)cc(C)c4C(F)(F)F)c(Cl)cc23)C(C)C1  98%
4. Cc1nc(N2CCC3(CC2)COC(C)C3N)c(CO)nc1Sc1ccnc(N)c1Cl (stereo unspecified) + C=CC(=O)N1CCN(c2nc(OCC3CCCN3C)nc3c(F)c(-c4nc(N)cc(C)c4C(F)(F)F)c(Cl)cc23)C(C)C1  79%
5. NC1c2ccccc2OC12CCN(c1cnc3c(N4CCCc5ncccc54)n[nH]c3n1)CC2 (stereo unspecified) + C=CC(=O)N1CCN(c2nc(OCC3CCCN3C)nc3c(F)c(-c4nc(N)cc(C)c4C(F)(F)F)c(Cl)cc23)C(C)C1  68%

Same assay, conditions: second compound 0.01 µM; first compound 0.316 µM; hits give low values

In order of rising viability, T/C:
1. NC1c2ccccc2OC12CCN(c1cnc3c(N4CCCc5ncccc54)n[nH]c3n1)CC2 (stereo unspecified) + C=CC(=O)N1CCN(c2nc(OCC3CCCN3C)nc3c(F)c(-c4nc(N)cc(C)c4C(F)(F)F)c(Cl)cc23)C(C)C1  62.1%
2. Cc1nc(N2CCC3(CC2)COC(C)C3N)c(CO)nc1Sc1ccnc(N)c1Cl (stereo unspecified) + C=CC(=O)N1CCN(c2nc(OCC3CCCN3C)nc3c(F)c(-c4nc(N)cc(C)c4C(F)(F)F)c(Cl)cc23)C(C)C1  64.6%
3. CC1(O)CCCC1n1c(=O)c(C(F)F)cc2cnc(NC3CCN(S(C)(=O)=O)CC3)nc21 (stereo unspecified) + C=CC(=O)N1CCN(c2nc(OCC3CCCN3C)nc3c(F)c(-c4nc(N)cc(C)c4C(F)(F)F)c(Cl)cc23)C(C)C1  78.6%
4. CCN1CCN(Cc2ccc(Nc3ncc(F)c(-c4cc(F)c5nc(C)n(C(C)C)c5c4)n3)nc2)CC1 + C=CC(=O)N1CCN(c2nc(OCC3CCCN3C)nc3c(F)c(-c4nc(N)cc(C)c4C(F)(F)F)c(Cl)cc23)C(C)C1  104%
5. CCC(CC)c1cc(NC2CCC(N)C2)n2nccc2n1 (stereo unspecified) + C=CC(=O)N1CCN(c2nc(OCC3CCCN3C)nc3c(F)c(-c4nc(N)cc(C)c4C(F)(F)F)c(Cl)cc23)C(C)C1  126%

Same assay, conditions: second compound 0.01 µM; first compound 1 µM; hits give low values

CC1(O)CCCC1n1c(=O)c(C(F)F)cc2cnc(NC3CCN(S(C)(=O)=O)CC3)nc21 (stereo unspecified) + C=CC(=O)N1CCN(c2nc(OCC3CCCN3C)nc3c(F)c(-c4nc(N)cc(C)c4C(F)(F)F)c(Cl)cc23)C(C)C1 showed a viability, T/C of 102%.
